Values of other authors, collected in patent US12569183B2 (University Of Maryland, Baltimore, priority 2018, dated 2026).

What was measured:
[1] = administered twice daily, steady state on day 3
[2] = clinical trials; median baseline QTc 405 msec
[3] = rapid IV infusions; hypotension, dyspnea, QT prolongation

- number of doses until steady-state exposures [1]: 4-5 doses
Compound: CC(C)NCC(O)c1ccc(NS(C)(=O)=O)cc1 (stereo not drawn) [sotalol]
- slope of the concentration QTc relationship [2]: 0.0158 ms/ng/mL
- adverse events [3]: only mild to moderate adverse events
